Literature values as cited in patent US20130195986A1, “New Particles of Tetracyclines and Protecting Agent” (HOVIONE INTER LTD, priority 2010, published 2013).

System: staining of the teeth and bones and pigmentation of the thyroid gland
Conditions: rats; simultaneous administration of ascorbic acid (vitamin C) with minocycline

Compound: O=C1O[C@H]([C@@H](O)CO)C(O)=C1O [ascorbic acid]
- staining of the teeth and bones and pigmentation of the thyroid gland: prevented staining of the teeth and bones and pigmentation of the thyroid gland
